In US3962282A, “Juvenile hormone mimics” (priority 1974, dated 1976):

Key:
Type in all cases: in vivo
Mexican bean beetle = test: topical application to Mexican bean beetle, fourth larval stage, maturation inhibition
Text: (§1) The compounds were applied in acetone solution at concentrations of 10 percent, 1 percent and 0.5 percent. One microliter of the acetone solution was applied to each test specimen. Ten test specimens were employed for each insect at each concentration and compared to ten acetone controls and ten zero controls. Approximately eight to ten days were required before results could be ascertained.
(§2) The insect species used in the test were Tenebrio molitor pupae; milkweed bug, fourth nymphal stage; wax moth, fifth larval stage; and Mexican bean beetle, fourth larval stage. At the completion of the test, each specimen was examined for the degree of juvenile and adult characteristics. The milkweed bug, wax moth, and Mexican bean beetle were assigned a numerical rating of 0 to 3 with 0 indicating no effect and 3 indicating the maximum effect or least adult development. Because of differences in morphology the Tenebrio rating scale was 0 to 4. In all cases a rating of 2 or higher means that the insect is incapable of reproduction. The number of specimens in each rating classification are given. In any test were the total of specimens reported is less than 10, those unreported died in some metamorphic stage. Such deaths indicate control, since the dead insects are not capable of reproducing.

Tenebrio molitor pupae = test: topical application to Tenebrio molitor pupae, maturation inhibition
Text: as §1, §2

wax moth = test: topical application to wax moth, fifth larval stage, maturation inhibition
Text: as §1, §2

milkweed bug = test: topical application to milkweed bug, fourth nymphal stage, maturation inhibition
Text: as §1, §2

[1] = 10% in acetone, 1 microliter topical, rating scale 0 (no effect) to 4 (maximum)
[2] = 10% in acetone, 1 microliter topical, rating scale 0 (no effect) to 3 (maximum)

Structure (SMILES)	number of specimens in rating 3 (Mexican bean beetle; 0.5%, rating scale 0-3)	number of specimens in rating 3 (Mexican bean beetle; 1%, rating scale 0-3)	number of specimens in rating 3 (Mexican bean beetle; 10%, rating scale 0-3)	number of specimens in rating 0 (Tenebrio molitor pupae; 0.5%, rating scale 0-4)	number of specimens in rating 1 (Tenebrio molitor pupae; 0.5%, rating scale 0-4)	number of specimens in rating 2 (Tenebrio molitor pupae; 0.5%, rating scale 0-4)	number of specimens in rating 4 (Tenebrio molitor pupae; 0.5%, rating scale 0-4)	number of specimens in rating 4 (Tenebrio molitor pupae; 1%, rating scale 0-4)	number of specimens in rating 4 (Tenebrio molitor pupae; 10%, rating scale 0-4)	number of specimens in rating 0 (wax moth; 0.5%, rating scale 0-3)	number of specimens in rating 0 (wax moth; 1%, rating scale 0-3)	number of specimens in rating 0 (wax moth; [2])	number of specimens in rating 0 (milkweed bug; 0.5%, rating scale 0-3)	number of specimens in rating 1 (milkweed bug; 0.5%, rating scale 0-3)	number of specimens in rating 3 (milkweed bug; 0.5%, rating scale 0-3)	number of specimens in rating 0 (milkweed bug; 1%, rating scale 0-3)	number of specimens in rating 3 (milkweed bug; 1%, rating scale 0-3)	number of specimens in rating 3 (milkweed bug; 10%, rating scale 0-3)	number of specimens in rating 0 (Mexican bean beetle; 0.5%, rating scale 0-3)	number of specimens in rating 0 (Tenebrio molitor pupae; 1%, rating scale 0-4)	other results
CC(=CCCc1ccc2c(c1)OCO2)CCCC(C)C [2,6-DIMETHYL-9-(3,4-METHYLENEDIOXYPHENYL)-6-NONENE]	2 specimens	10 specimens	10 specimens	3 specimens	1 specimens	2 specimens	2 specimens	6 specimens	9 specimens	9 specimens	9 specimens	10 specimens	5 specimens	1 specimens	3 specimens	1 specimens	8 specimens	7 specimens	–	–	number of specimens in rating 1 (Mexican bean beetle; 0.5%, rating scale 0-3): 1 specimens; number of specimens in rating 2 (Mexican bean beetle; 0.5%, rating scale 0-3): 7 specimens; number of specimens in rating 3 (Tenebrio molitor pupae; 0.5%, rating scale 0-4): 2 specimens; number of specimens in rating 2 (Tenebrio molitor pupae; 1%, rating scale 0-4): 4 specimens; number of specimens in rating 0 (Tenebrio molitor pupae; [1]): 1 specimens; number of specimens in rating 1 (wax moth; 0.5%, rating scale 0-3): 1 specimens; number of specimens in rating 1 (wax moth; 1%, rating scale 0-3): 1 specimens
COc1ccc(CCC=C(C)CCC=C(C)C)cc1 [2,6-DIMETHYL-9-(4-METHOXYPHENYL)-2,6-NONADIENE]	–	–	–	1 specimens	6 specimens	3 specimens	–	2 specimens	–	10 specimens	9 specimens	10 specimens	10 specimens	–	–	5 specimens	–	–	10 specimens	–	number of specimens in rating 0 (Mexican bean beetle; 1%, rating scale 0-3): 10 specimens; number of specimens in rating 0 (Mexican bean beetle; [2]): 6 specimens; number of specimens in rating 1 (Mexican bean beetle; 10%, rating scale 0-3): 1 specimens; number of specimens in rating 2 (Mexican bean beetle; 10%, rating scale 0-3): 3 specimens; number of specimens in rating 1 (Tenebrio molitor pupae; 1%, rating scale 0-4): 1 specimens; number of specimens in rating 2 (Tenebrio molitor pupae; 1%, rating scale 0-4): 2 specimens; number of specimens in rating 3 (Tenebrio molitor pupae; 1%, rating scale 0-4): 5 specimens; number of specimens in rating 1 (milkweed bug; 1%, rating scale 0-3): 5 specimens
CC(C)=CCC/C(C)=C/CCc1ccccc1 [2,6-DIMETHYL-9-PHENYL-2,6-NONADIENE]	10 specimens	10 specimens	10 specimens	7 specimens	3 specimens	–	–	–	5 specimens	10 specimens	10 specimens	10 specimens	8 specimens	1 specimens	–	2 specimens	–	9 specimens	–	6 specimens	number of specimens in rating 1 (Tenebrio molitor pupae; 1%, rating scale 0-4): 4 specimens; number of specimens in rating 2 (Tenebrio molitor pupae; 10%, rating scale 0-4): 1 specimens; number of specimens in rating 3 (Tenebrio molitor pupae; 10%, rating scale 0-4): 4 specimens; number of specimens in rating 2 (milkweed bug; 0.5%, rating scale 0-3): 1 specimens; number of specimens in rating 1 (milkweed bug; 1%, rating scale 0-3): 1 specimens
CCC1(C)OC1CCC(C)=CCCc1ccc2c(c1)OCO2 (stereo not shown) [3,4-EPOXY-3,7-DIMETHYL-10-(3,4-METHYLENEDIOXYPHENYL)-7-DECENE]	10 specimens	10 specimens	–	–	–	–	10 specimens	10 specimens	10 specimens	–	–	–	2 specimens	5 specimens	–	2 specimens	8 specimens	–	–	–	number of specimens in rating 2 (wax moth; 0.5%, rating scale 0-3): 1 specimens; number of specimens in rating 3 (wax moth; 0.5%, rating scale 0-3): 9 specimens; number of specimens in rating 3 (wax moth; 1%, rating scale 0-3): 10 specimens; number of specimens in rating 2 (milkweed bug; 0.5%, rating scale 0-3): 2 specimens
CCC(C)=CCCC(C)=CCCc1ccc2c(c1)OCO2 [3,7-DIMETHYL-10-(3,4-METHYLENEDIOXYPHENYL)-3,7-DECADIENE]	–	–	–	–	–	–	10 specimens	10 specimens	10 specimens	–	–	–	–	1 specimens	8 specimens	–	9 specimens	5 specimens	–	–	–
CCC(C)=CCCC(=CCCc1ccc2c(c1)OCO2)CC [3-METHYL-7-ETHYL-10-(3,4-METHYLENEDIOXYPHENYL)-3,7-DECADIENE]	9 specimens	10 specimens	10 specimens	–	–	–	8 specimens	9 specimens	10 specimens	9 specimens	10 specimens	10 specimens	9 specimens	1 specimens	–	7 specimens	1 specimens	10 specimens	–	–	number of specimens in rating 2 (Mexican bean beetle; 0.5%, rating scale 0-3): 1 specimens; number of specimens in rating 3 (Tenebrio molitor pupae; 0.5%, rating scale 0-4): 2 specimens; number of specimens in rating 3 (Tenebrio molitor pupae; 1%, rating scale 0-4): 1 specimens; number of specimens in rating 2 (milkweed bug; 1%, rating scale 0-3): 2 specimens
CCCCCCCCCc1ccc2c(c1)OCO2 [5-(n-NONYL)-1,3-BENZODIOXOLE]	–	–	8 specimens	6 specimens	1 specimens	3 specimens	–	1 specimens	7 specimens	–	–	–	8 specimens	1 specimens	–	3 specimens	4 specimens	5 specimens	9 specimens	2 specimens	number of specimens in rating 0 (Mexican bean beetle; 1%, rating scale 0-3): 10 specimens; number of specimens in rating 2 (Tenebrio molitor pupae; 1%, rating scale 0-4): 5 specimens; number of specimens in rating 3 (Tenebrio molitor pupae; 1%, rating scale 0-4): 1 specimens; number of specimens in rating 3 (Tenebrio molitor pupae; 10%, rating scale 0-4): 3 specimens; number of specimens in rating 1 (milkweed bug; 1%, rating scale 0-3): 1 specimens; number of specimens in rating 2 (milkweed bug; 1%, rating scale 0-3): 1 specimens; number of specimens in rating 0 (milkweed bug; [2]): 4 specimens; number of specimens in rating 2 (milkweed bug; 10%, rating scale 0-3): 1 specimens
CC(C)CCCC(C)CCCc1ccc2c(c1)OCO2 (stereo not shown) [9-(3,4-methylenedioxyphenyl)-2,6-dimethylnonane]	–	–	–	–	–	–	7 specimens	10 specimens	10 specimens	–	–	–	–	–	8 specimens	–	10 specimens	8 specimens	–	–	number of specimens in rating 3 (Tenebrio molitor pupae; 0.5%, rating scale 0-4): 3 specimens
CC(C)=CCC/C(C)=C/CCc1cccs1 [trans-9-(2-THIENYL)-2,6-DIMETHYL-2,6-NONADIENE]	–	–	10 specimens	8 specimens	2 specimens	–	–	–	9 specimens	–	–	–	10 specimens	–	–	10 specimens	–	4 specimens	9 specimens	10 specimens	number of specimens in rating 1 (Mexican bean beetle; 0.5%, rating scale 0-3): 1 specimens; number of specimens in rating 0 (Mexican bean beetle; 1%, rating scale 0-3): 5 specimens; number of specimens in rating 1 (Mexican bean beetle; 1%, rating scale 0-3): 5 specimens; number of specimens in rating 1 (Tenebrio molitor pupae; 10%, rating scale 0-4): 1 specimens; number of specimens in rating 0 (milkweed bug; [2]): 3 specimens
CC(C)=CCC/C(C)=C/CCc1cccc(Br)c1 [trans-9-(3-BROMOPHENYL)-2,6-DIMETHYL-2,6-NONADIENE]	1 specimens	2 specimens	1 specimens	8 specimens	1 specimens	1 specimens	–	–	–	–	–	–	–	–	10 specimens	–	10 specimens	10 specimens	8 specimens	8 specimens	number of specimens in rating 1 (Mexican bean beetle; 0.5%, rating scale 0-3): 1 specimens; number of specimens in rating 0 (Mexican bean beetle; 1%, rating scale 0-3): 7 specimens; number of specimens in rating 1 (Mexican bean beetle; 1%, rating scale 0-3): 1 specimens; number of specimens in rating 0 (Mexican bean beetle; [2]): 9 specimens; number of specimens in rating 1 (Tenebrio molitor pupae; 1%, rating scale 0-4): 2 specimens; number of specimens in rating 0 (Tenebrio molitor pupae; [1]): 8 specimens; number of specimens in rating 1 (Tenebrio molitor pupae; 10%, rating scale 0-4): 2 specimens
CC(C)=CCC/C(C)=C/CCc1ccc(Br)cc1 [trans-9-(4-BROMOPHENYL)-2,6-DIMETHYL-2,6-NONADIENE]	10 specimens	10 specimens	10 specimens	8 specimens	1 specimens	–	1 specimens	–	10 specimens	–	–	–	–	–	10 specimens	–	10 specimens	9 specimens	–	9 specimens	number of specimens in rating 1 (Tenebrio molitor pupae; 1%, rating scale 0-4): 1 specimens
